# Entries after “also recorded” stand apart in the source; their conditions may differ.
# Legend:
# Atoh1-induced neurons [1] = format: cell-based, human
# [2] = system: Atoh1-induced DA neurons derived from human iPSCs; format: cell-based; settings: 40 μM and 100 μM for 15 minutes
# Procedure: Neuron culture medium was changed to neurobasal medium before treatment. 6-OHDA was freshly prepared in vehicle solution (ascorbic acid (0.15%) in H2O) and quickly added to the neuron culture. Control cells were treated with vehicle solution alone. After 15 min at 37° C., the medium was removed and neurons were gently washed twice with Neurobasal Medium. 200 μl neuron culture medium (Neurobasal Medium with B27 Supplement) was added to each well and further incubated for 24 h. Cytotoxicity induced by 6-OHDA was measured using LDH Cytotoxicity Detection Kit (Roche) following the manufacturer's protocol. The percentage cytotoxicity was calculated using the following equation: Cytotoxicity (%)=(Experiment Value−Low Control)/(High Control−Low Control)×100. (Low control: culture medium; High control: total cell lysate).
# 6-hydroxydopamine (6-OHDA) is a neurotoxin widely used to induce neurotoxicity both in vivo and in vitro to model DA neuron loss in PD pathogenesis. […] Here, we tested the response of Atoh1-induced DA neurons to 6-OHDA treatment. […] Thus, Atoh1-induced DA neurons derived from human iPSCs are sensitive to 6-OHDA treatment at a concentration that selectively damages primary DA neurons isolated from substantia nigra.
# [3] = system: primary DA neurons from substantia nigra; settings: 6-OHDA 40 μM; cited from earlier work
# Atoh1-iPSCs = test: Dox-inducible Atoh1 expression measured by qRT-PCR; format: cell-based, human; settings: Dox treatment for 2 days
# Procedure: Total RNA was extracted using the RNeasy Mini kit (Qiagen). Reverse transcription was performed using MuLV reverse transcriptase (Applied biosystems) and Oligo(dT) primers. qRT-PCR was performed using SYBR Green PCR Master Mix (Applied Biosystems) and IQ5 RT-PCR detection system (Bio-rad). Relative expression of each gene was normalized to the 18S rRNA. To further optimize the Atoh1-mediated differentiation strategy, we asked what is the minimum time of Atoh1 induction for successful neuronal conversion. Equal numbers of Atoh1-iPSCs received different durations of Dox treatment (1 to 5 days), after which cells were replated and allowed to mature in vitro for additional 30 days. […] In contrast, Dox treatment for 2 to 5 days successfully differentiated iPSCs into neurons expressing TUJ1 and MAP2 (FIG. 9). […] To compare the level of neurogenic signaling before and after silencing ectopic Atoh1 expression, we treated Atoh1-iPSCs with Dox for 2 days and then withdrew Dox for 3 days (FIGS. 2J and 2K).
# Atoh1-induced neurons [4] = test: Current-clamp recording, negative current injection: hyperpolarization sag and rebound action potentials; format: cell-based, human; settings: ML252 5 μM
# Atoh1-induced DA neurons = format: cell-based, human
structure (smiles),measurement,setting,value
Nc1ccncc1 [4-AP],effect on potassium current,"Atoh1-induced neurons [1]; 4-AP 25 μM, together with TTX, voltage-clamp",significantly attenuated
"NCCc1cc(O)c(O)cc1O [6-OHDA, 6-hydroxydopamine]",neuron death by LDH Cytotoxicity assay,[2]; LDH after 24 h,neuron death was also confirmed
same,"morphological signs of neuron death (cell condensation, neurite fragmentation)","[2]; differentiation day 36, read 24 hours after treatment",caused morphological signs of neuron death
same,DA neuron loss in rat substantia nigra neuron cultures,[3],causes selective DA neuron loss without affecting GABA neurons
"C[C@H]1c2cccc(O)c2C(=O)C2=C(O)[C@]3(O)C(=O)C(C(N)=O)=C(O)[C@@H](N(C)C)[C@@H]3[C@@H](O)[C@@H]21 [Dox, Doxycycline]",Atoh1 up-regulation by qRT-PCR versus control,Atoh1-iPSCs,49 fold
CC[C@H](C(=O)Nc1ccccc1N1CCCC1)c1ccccc1 [ML252],effect on hyperpolarization sag and rebound action potentials,Atoh1-induced neurons [4],dampened; also recorded: blocked
"NC1=N[C@H](O)[C@H]2[C@H]3O[C@]4(O)O[C@@H]([C@@H](O)[C@@]2(N1)[C@@H]4O)[C@]3(O)CO [TTX, tetrodotoxin]",effect on train of evoked action potentials,Atoh1-induced DA neurons,suppressed; also recorded: completely blocked
same,time to recovery of action potentials after TTX washout,Atoh1-induced DA neurons,17 min
same,effect on sodium current,Atoh1-induced neurons [1],significantly attenuated

# — patent publication US11104881B2, “Method for highly efficient conversion of human stem cells to lineage-specific neurons” (THE JOHNS HOPKINS UNIVERSITY, priority 2013, dated 2021)
